The structures appear in SMILES notation.

The target of data set [1] is T1, Thromboxane-A synthase (Homo sapiens, UniProt P24557).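 Note: enzyme inhibition assay with PGH2 supplied as substrate; in other assays of this panel Not Active means under 50% inhibition at 10 µM.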
T1 sequence (P24557 whole entry): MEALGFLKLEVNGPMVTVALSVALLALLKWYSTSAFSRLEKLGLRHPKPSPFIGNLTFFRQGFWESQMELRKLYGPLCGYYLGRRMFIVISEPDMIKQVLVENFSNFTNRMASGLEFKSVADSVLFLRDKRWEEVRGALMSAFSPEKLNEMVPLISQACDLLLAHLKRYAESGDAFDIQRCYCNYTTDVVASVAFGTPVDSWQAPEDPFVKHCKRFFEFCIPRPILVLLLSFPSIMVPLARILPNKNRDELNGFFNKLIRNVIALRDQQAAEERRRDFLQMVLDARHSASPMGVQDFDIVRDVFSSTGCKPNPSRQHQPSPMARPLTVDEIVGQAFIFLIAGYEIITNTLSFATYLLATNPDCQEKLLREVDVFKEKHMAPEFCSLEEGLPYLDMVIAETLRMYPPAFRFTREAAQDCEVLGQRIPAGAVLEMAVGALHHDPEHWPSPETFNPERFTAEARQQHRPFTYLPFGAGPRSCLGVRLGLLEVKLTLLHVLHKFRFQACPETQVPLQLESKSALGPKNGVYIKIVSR
In words: biochemical. The data set is classed as tissue-based, Platelet. Conditions: platelet.

Data set [2] is described as follows: DRUGMATRIX: Phorbol Ester radioligand binding (ligand: [3H] PDBu). The data set is classed as cell membranes, Mus musculus, ICR, Brain, Membrane. Conditions: Not Active = under 50% inhibition at 10 µM.
The target of data set [3] is Cytochrome P450 2D6 (Homo sapiens, UniProt P10635). Conditions: bti-tn-5b1-4. Note: in other assays of this panel Not Active means under 50% inhibition at 10 µM.
Data set [4] addresses T2, C-X-C chemokine receptor type 1 (Homo sapiens, UniProt P25024).
T2 sequence (P25024 whole entry): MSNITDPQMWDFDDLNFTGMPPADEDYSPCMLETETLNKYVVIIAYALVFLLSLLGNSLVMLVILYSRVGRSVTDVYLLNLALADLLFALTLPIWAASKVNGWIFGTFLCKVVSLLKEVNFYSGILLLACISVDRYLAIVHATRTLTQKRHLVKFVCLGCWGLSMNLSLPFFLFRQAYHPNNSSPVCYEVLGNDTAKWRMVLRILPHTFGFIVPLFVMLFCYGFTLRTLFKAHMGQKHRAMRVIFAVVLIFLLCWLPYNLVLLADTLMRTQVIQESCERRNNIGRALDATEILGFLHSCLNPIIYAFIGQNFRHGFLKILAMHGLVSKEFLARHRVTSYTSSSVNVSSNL

In data set [5] the target is Estrogen receptor beta (Homo sapiens, UniProt Q92731). Conditions: sf9. Note: in other assays of this panel Not Active means under 50% inhibition at 10 µM.
Data set [6] concerns the target Cannabinoid receptor 1 (Homo sapiens, UniProt P21554). It counts as cell membranes, Chem-1, Membrane. To be noted: chem-1. Note: in other assays of this panel Not Active means under 50% inhibition at 10 µM.
The target of data set [7] is T3, Caspase-1 (Homo sapiens, UniProt P29466).
T3 sequence (P29466 whole entry): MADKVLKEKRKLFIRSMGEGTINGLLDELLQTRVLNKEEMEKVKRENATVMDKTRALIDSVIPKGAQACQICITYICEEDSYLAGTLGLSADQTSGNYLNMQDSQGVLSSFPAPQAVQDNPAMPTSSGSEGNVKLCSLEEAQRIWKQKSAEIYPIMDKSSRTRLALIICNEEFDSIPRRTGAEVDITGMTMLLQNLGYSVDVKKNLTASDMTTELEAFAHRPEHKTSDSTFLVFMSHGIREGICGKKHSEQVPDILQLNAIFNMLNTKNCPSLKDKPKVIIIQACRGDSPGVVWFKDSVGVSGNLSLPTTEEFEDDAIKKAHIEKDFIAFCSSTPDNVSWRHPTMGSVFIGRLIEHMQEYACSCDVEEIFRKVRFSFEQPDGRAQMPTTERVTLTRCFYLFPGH
Also noted: species or system Escherichia coli.

For data set [8], the target named is Epidermal growth factor receptor (Homo sapiens, UniProt P00533). In words: DRUGMATRIX: Protein Tyrosine Kinase, EGF Receptor enzyme inhibition (substrate: Poly(Glu:Tyr)). It counts as cell-based, Insect cells. Conditions: insect cells; Not Active = under 50% inhibition at 10 µM.
The nature of data set [9]: DRUGMATRIX: Calcium Channel Type L, Dihydropyridine radioligand binding (ligand: [3H] Nitrendipine). The data set is classed as cell membranes, Rattus norvegicus, Wistar, Cerebral cortex, Membrane. To be noted: Not Active = under 50% inhibition at 10 µM.
Data set [10] can be described thus: DRUGMATRIX: Interleukin IL-1 radioligand binding (ligand: [125I] interleukin 1beta). It counts as cell membranes, Membrane. To be noted: nih3t3; Not Active = under 50% inhibition at 10 µM.

Sequence of Cytochrome P450 2D6 (P10635 whole entry): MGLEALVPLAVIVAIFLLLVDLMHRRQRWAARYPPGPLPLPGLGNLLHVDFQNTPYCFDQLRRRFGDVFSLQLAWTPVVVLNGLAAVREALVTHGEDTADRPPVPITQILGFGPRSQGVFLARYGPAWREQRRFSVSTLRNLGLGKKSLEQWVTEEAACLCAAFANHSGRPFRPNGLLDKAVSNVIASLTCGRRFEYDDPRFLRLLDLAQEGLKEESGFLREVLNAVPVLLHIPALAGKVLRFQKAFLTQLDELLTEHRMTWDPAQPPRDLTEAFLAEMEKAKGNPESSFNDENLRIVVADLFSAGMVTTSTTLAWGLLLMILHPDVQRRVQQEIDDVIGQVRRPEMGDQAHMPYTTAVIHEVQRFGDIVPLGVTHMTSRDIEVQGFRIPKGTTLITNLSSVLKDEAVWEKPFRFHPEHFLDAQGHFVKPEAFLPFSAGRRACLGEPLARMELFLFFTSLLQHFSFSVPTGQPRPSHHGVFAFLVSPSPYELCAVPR
Sequence of Estrogen receptor beta (Q92731 whole entry): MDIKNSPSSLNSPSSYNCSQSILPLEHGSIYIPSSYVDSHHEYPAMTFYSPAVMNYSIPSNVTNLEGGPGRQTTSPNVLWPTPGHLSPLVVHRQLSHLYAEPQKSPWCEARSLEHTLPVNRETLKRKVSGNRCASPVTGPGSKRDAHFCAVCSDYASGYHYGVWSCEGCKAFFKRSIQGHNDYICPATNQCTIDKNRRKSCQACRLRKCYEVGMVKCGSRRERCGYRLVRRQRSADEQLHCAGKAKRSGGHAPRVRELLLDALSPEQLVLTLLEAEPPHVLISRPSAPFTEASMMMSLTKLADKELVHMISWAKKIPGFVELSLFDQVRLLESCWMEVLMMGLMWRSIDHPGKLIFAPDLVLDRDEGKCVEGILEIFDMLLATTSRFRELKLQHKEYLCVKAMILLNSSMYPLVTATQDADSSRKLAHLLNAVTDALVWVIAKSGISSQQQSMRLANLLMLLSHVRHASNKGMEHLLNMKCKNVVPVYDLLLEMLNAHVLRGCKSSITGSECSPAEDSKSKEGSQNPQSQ
Sequence of Epidermal growth factor receptor (P00533 whole entry): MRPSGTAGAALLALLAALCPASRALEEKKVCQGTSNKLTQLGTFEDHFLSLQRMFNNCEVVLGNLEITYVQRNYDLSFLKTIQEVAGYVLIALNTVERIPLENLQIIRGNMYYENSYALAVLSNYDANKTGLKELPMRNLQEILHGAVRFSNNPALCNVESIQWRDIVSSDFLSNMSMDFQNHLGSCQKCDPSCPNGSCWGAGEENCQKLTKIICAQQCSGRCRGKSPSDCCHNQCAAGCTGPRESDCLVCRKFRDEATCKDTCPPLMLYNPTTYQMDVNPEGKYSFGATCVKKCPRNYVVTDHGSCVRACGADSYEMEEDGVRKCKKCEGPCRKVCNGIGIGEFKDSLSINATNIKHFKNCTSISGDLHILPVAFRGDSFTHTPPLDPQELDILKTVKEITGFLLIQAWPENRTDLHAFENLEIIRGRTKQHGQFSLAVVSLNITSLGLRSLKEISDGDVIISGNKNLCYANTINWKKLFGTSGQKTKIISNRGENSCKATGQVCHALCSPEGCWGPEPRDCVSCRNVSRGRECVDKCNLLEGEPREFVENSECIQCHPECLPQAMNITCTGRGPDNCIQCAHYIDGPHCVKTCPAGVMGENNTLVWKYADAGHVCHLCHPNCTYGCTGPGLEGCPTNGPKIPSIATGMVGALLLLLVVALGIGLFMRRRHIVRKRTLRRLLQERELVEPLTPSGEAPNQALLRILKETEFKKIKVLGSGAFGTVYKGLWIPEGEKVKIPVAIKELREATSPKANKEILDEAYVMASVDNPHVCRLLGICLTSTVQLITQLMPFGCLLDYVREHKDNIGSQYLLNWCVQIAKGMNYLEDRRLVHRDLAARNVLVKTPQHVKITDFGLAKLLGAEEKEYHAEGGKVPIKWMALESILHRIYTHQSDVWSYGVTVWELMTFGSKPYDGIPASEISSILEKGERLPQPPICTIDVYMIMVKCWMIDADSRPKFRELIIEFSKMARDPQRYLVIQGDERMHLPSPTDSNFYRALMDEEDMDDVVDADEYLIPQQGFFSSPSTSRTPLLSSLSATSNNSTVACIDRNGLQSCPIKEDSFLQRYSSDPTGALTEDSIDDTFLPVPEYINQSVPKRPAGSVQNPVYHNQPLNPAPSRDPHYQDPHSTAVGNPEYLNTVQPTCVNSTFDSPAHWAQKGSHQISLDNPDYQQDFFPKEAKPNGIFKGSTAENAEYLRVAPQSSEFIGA
Sequence of Cannabinoid receptor 1 (P21554 whole entry): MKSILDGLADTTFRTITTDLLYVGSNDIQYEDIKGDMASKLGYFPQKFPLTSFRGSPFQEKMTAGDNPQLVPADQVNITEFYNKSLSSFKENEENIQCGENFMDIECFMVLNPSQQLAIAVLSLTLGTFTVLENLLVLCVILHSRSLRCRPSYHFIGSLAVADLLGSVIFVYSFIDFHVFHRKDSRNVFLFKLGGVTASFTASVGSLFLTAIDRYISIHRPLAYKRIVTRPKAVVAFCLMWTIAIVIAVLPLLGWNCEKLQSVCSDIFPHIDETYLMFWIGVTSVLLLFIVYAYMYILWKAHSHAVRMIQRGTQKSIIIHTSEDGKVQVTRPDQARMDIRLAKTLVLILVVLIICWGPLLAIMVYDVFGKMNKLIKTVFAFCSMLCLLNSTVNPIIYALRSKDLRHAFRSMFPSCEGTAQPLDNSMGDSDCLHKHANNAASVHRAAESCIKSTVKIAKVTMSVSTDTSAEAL

With `N[C@H](CSC(=S)NCc1ccccc1)C(=O)O`, the IC50 result in data set [1], in data set [2], in data set [3], in [4], in data set [5] and in data set [6] was “Not Active” each time. Further, the IC50 entry in [7], in [8], in [9] and in data set [10] was “Not Active” in each case. Moreover, the Ki result in data set [2], in [3], in data set [9] and in data set [10] was “Not Active” each time.
Turning to `CC(=O)N[C@@H]1[C@H](Oc2c3cc4cc2Oc2ccc(cc2Cl)[C@@H](O[C@@H]2O[C@@H](CO)[C@@H](O)[C@H](O)[C@@H]2NC(C)=O)[C@@H]2NC(=O)[C@H](NC(=O)[C@@H]4NC(=O)[C@H]4NC(=O)[C@@H](Cc5ccc(c(Cl)c5)O3)NC(=O)[C@H](N)c3ccc(O)c(c3)Oc3cc(O)cc4c3)c3ccc(O)c(c3)-c3c(O[C@H]4O[C@H](CO)[C@@H](O)[C@@H](O)[C@@H]4O)cc(O)cc3[C@@H](C(=O)O)NC2=O)O[C@@H](CO)[C@@H](O)[C@@H]1O`, the IC50 result in data set [1], in data set [2], in [3], in [4], in data set [5] and in [6] was “Not Active” each time. In addition, the IC50 result in data set [7], in data set [8], in [9] and in data set [10] was “Not Active” throughout. Further, the Ki entry in data set [2], in data set [3], in data set [9] and in data set [10] was “Not Active” each time.
As to `COCCCOc1ccnc(C[S+]([O-])c2nc3ccccc3[nH]2)c1C` (stereo not given) [RABEPRAZOLE], the IC50 entry in data set [1], in data set [2], in data set [3], in data set [4], in data set [5] and in data set [6] was “Not Active” in each case. Also, the 50% inhibitory concentration (IC50) entry in [7], in data set [8], in data set [9] and in [10] was “Not Active” each time. The Ki result in [2], in data set [3], in [9] and in [10] was “Not Active” throughout.
Regarding `O=C(c1ccc(OCCN2CCCCC2)cc1)c1c(-c2ccc(O)cc2)sc2cc(O)ccc12` [RALOXIFENE], the IC50 entry in data set [1], in data set [2], in data set [3], in [4], in [5] and in data set [6] was “Not Active” throughout. Besides, the IC50 entry in data set [7] was “Not Active”; in data set [8] it was “Not Active”; in data set [9] (read-out: IC50), 388 nM; in data set [10] it was “Not Active”. Moreover, the Ki entry in [2] was “Not Active”; in data set [3] it was “Not Active”; in data set [9] (read-out: Ki) it was 249 nM; in data set [10], “Not Active”.
Consider `CNC(=C[N+](=O)[O-])NCCSCc1ccc(CN(C)C)o1` [RANITIDINE], for which the half-maximal inhibitory concentration (IC50) entry in [1], in data set [2], in data set [3], in data set [4], in data set [5] and in [6] was “Not Active” throughout. Also, the IC50 result in data set [7], in data set [8], in data set [9] and in data set [10] was “Not Active” in each case. For the same compound, the inhibition constant Ki result in data set [2], in [3], in [9] and in data set [10] was “Not Active” throughout.
Regarding `CO[C@H]1/C=C/O[C@@]2(C)Oc3c(C)c(O)c4c(c3C2=O)C2=NC3(CCN(CC(C)C)CC3)NC2=C(NC(=O)/C(C)=C\C=C\[C@H](C)[C@H](O)[C@@H](C)[C@@H](O)[C@@H](C)[C@H](OC(C)=O)[C@@H]1C)C4=O` [RIFABUTIN], the IC50 entry in [1], in data set [2], in [3], in [4], in data set [5] and in data set [6] was “Not Active” in each case. In addition, the 50% inhibitory concentration (IC50) entry in [7], in data set [8], in data set [9] and in data set [10] was “Not Active” throughout. In addition, the Ki entry in data set [2], in data set [3], in data set [9] and in [10] was “Not Active” each time.
With `CC(C)CC(N(C)C)C1(c2ccc(Cl)cc2)CCC1` (stereo not given) [SIBUTRAMINE], the IC50 result in data set [1], in data set [2], in data set [3], in data set [4], in [5] and in [6] was “Not Active” in each case. The IC50 entry in [7], in data set [8], in data set [9] and in [10] was “Not Active” throughout. In addition, the inhibition constant Ki result in data set [2], in data set [3], in data set [9] and in [10] was “Not Active” throughout.
Take `[H]/N=C(/N)N[C@H]1[C@H](O)[C@@H](O)[C@H](O[C@@H]2O[C@@H](C)[C@](O)(C=O)[C@H]2O[C@@H]2O[C@@H](CO)[C@H](O)[C@@H](O)[C@@H]2NC)[C@@H](N/C(N)=N\[H])[C@@H]1O` [STREPTOMYCIN]: the 50% inhibitory concentration (IC50) entry in [1], in [2], in data set [3], in [4], in [5] and in data set [6] was “Not Active” throughout. In addition, the 50% inhibitory concentration (IC50) result in data set [7], in data set [8], in data set [9] and in [10] was “Not Active” throughout. In addition, the Ki result in data set [2], in [3], in data set [9] and in [10] was “Not Active” throughout.
On to `COc1cc(NS(=O)(=O)c2ccc(N)cc2)nc(OC)n1` [SULFADIMETHOXINE], for which the half-inhibitory concentration (IC50) result in data set [1], in [2], in [3], in data set [4], in data set [5] and in data set [6] was “Not Active” throughout. The IC50 entry in [7], in [8], in data set [9] and in [10] was “Not Active” throughout. Also, the inhibition constant Ki result in [2], in data set [3], in data set [9] and in data set [10] was “Not Active” in each case.
For the compound `CN1C(C(=O)Nc2ccccn2)=C(O)c2sccc2S1(=O)=O` [TENOXICAM], the half-maximal inhibitory concentration (IC50) result in data set [1], in [2], in [3], in data set [4], in [5] and in data set [6] was “Not Active” throughout. The IC50 result in [7], in data set [8], in data set [9] and in data set [10] was “Not Active” each time. Moreover, the Ki result in data set [2], in data set [3], in data set [9] and in [10] was “Not Active” each time.

(Values after ChEMBL document CHEMBL1909046, “DrugMatrix in vitro pharmacology data”.)
